Literature values as cited in patent US20060198906A1, “Compositions and Method to Increase Serum Levels of HDL cholesterol and Lower the Risk of Cardiovascular Disease” (SAMI LABS LIMITED, priority 2005, published 2006).

Conditions: dose range of 20-80 mg/day, clinical studies

Compound: CC(C)c1nc(N(C)S(C)(=O)=O)nc(-c2ccc(F)cc2)c1/C=C/[C@@H](O)C[C@@H](O)CC(=O)O [Rosuvastatin]
- reduction of LDL levels: up to 65%
